In patent US6861428B2, “Water-soluble phenylpyridazine compounds and compositions containing the same” (Kowa Co., Ltd., priority 2001, dated 2005):
Where a name gives a salt, the structure may show the parent alone. Read-outs that look alike come from different tables or passages of the source.

Columns and labels:
[1] = test system: interleukin-1β production; assay: Inhibitory activity against interleukin-1β production (LPS-stimulated HL-60 cells, ELISA); format: cell-based; conditions: lipopolysaccharide 10 μg/mL, 3 days
Procedure: Inhibitory Activity Against Interleukin-1β Production
HL-60 cells were cultured for 4 days until confluence on RPMI 1640 medium with 10% fetal bovine serum (FBS) added thereto. The medium was centrifuged. The supernatant was discarded, and the cells were then suspended at 1×10^6 cells/mL on RPMI 1640 medium with 3% FBS, and lipopolysaccharide was added to give a final concentration of 10 μg/mL. The culture was inoculated at 1 mL/well to a 24-well plate. A sample compound was added at 1 μL/well, followed by culturing for 3 days. Three days later, the amount of interleukin-1β in each culture was determined by ELISA. Each IC50 value was determined by a comparison in yield with a control to which no test sample was added.

[2] = Homo sapiens, 72 h, Table 1, read-out: IL-1β production inhibiting activity IC50

Row | Structure (SMILES) | melting point | further results
1 | CC(C)Cn1nc(-c2ccc(F)c(F)c2)cc(CN2CCN(C)CC2)c1=O.Cl.Cl | 242.5 to 243.4 °C | –
2 | Cc1cc(-c2cc(CN(C)C)c(=O)n(Cc3ccccc3)n2)ccc1F.Cl | 225.3 to 226 °C | –
3 | Cc1cc(-c2cc(CN3CCNCC3)c(=O)n(CC=Cc3ccccc3)n2)ccc1F.Cl.Cl | 171.1 to 187.1 °C (dec.) | –
4 | Cc1cc(-c2cc(CN3CCN(C)CC3)c(=O)n(CC=Cc3ccccc3)n2)ccc1F.Cl.Cl | 236.1 to 237.1 °C | –
5 | Cc1cc(-c2cc(CN(C)C)c(=O)n(CC=Cc3ccccc3)n2)ccc1F.Cl | 183.6 to 184.5 °C | –
6 | Cc1cc(-c2cc(CN3CCNCC3)c(=O)n(CC=Cc3ccc(Cl)cc3)n2)ccc1F.Cl.Cl | 186.7 to 197 °C (dec.) | –
7 | CN1CCN(Cc2cc(-c3ccc([S+](C)[O-])cc3)nn(CC3CC3)c2=O)CC1.Cl.Cl (centres unmarked) | 80 °C (dec.) | –
8 | CC(C)Cn1nc(-c2ccc([S+](C)[O-])cc2)cc(CN(C)C)c1=O.Cl (centres unmarked) | 204.2 to 206 °C | –
9 | CC(C)Cn1nc(-c2ccc(S(C)(=O)=O)cc2)cc(CN2CCNCC2)c1=O.Cl.Cl | 222.4 to 224.2 °C | –
10 | CC(C)Cn1nc(-c2ccc(S(C)(=O)=O)cc2)cc(CN(C)C)c1=O.Cl | 221.4 to 223.3 °C | –
11 | Cc1ccc(-c2cc(CN3CCNCC3)c(=O)n(CC(C)C)n2)cc1F.Cl.Cl | 186.2 to 195 °C (dec.) | –
12 | Cc1cc(-c2cc(CN3CCN(C)CC3)c(=O)n(Cc3ccc(Cl)cc3)n2)ccc1F.Cl.Cl | 246.4 to 249.7 °C (dec.) | –
13 | Cc1cc(-c2cc(CN)c(=O)n(Cc3ccccc3Cl)n2)ccc1F.Cl | 201.9 to 206.4 °C | –
14 | COc1ccc(-c2cc(CN3CCNCC3)c(=O)n(CC(C)C)n2)cc1F.Cl.Cl | 163 to 177 °C (dec.) | –
15 | COc1ccc(-c2cc(CN3CCN(C)CC3)c(=O)n(CC(C)C)n2)cc1F.Cl.Cl | 236.9 to 237 °C | –
16 | Cc1c(-c2ccccc2)nn(CC(C)C)c(=O)c1N1CCN(C)CC1.Cl.Cl | 243.8 to 244.3 °C | –
17 | Cc1ccc(-c2cc(CN3CCN(C)CC3)c(=O)n(CC(C)C)n2)cc1F.Cl.Cl | 248.5 to 252 °C (dec.) | –

Row | Structure (SMILES) | melting point | further results
18 | Cc1c(-c2ccc(C(F)(F)F)cc2)nn(CC(C)C)c(=O)c1N1CCN(C)CC1.Cl.Cl | 249.9 to 252.8 °C | –
19 | CC(C)Cn1nc(-c2ccc(C(F)(F)F)cc2)cc(CN(C)C)c1=O.Cl | 242.2 to 242.3 °C | –
20 | CC(C)Cn1nc(-c2ccc(-c3ccccc3)cc2)cc(CN2CCNCC2)c1=O.Cl.Cl | 226.8 to 228 °C | –
21 | Cc1c(-c2ccc(-c3ccccc3)cc2)nn(CC(C)C)c(=O)c1N(C)C.Cl | 243.9 to 244.1 °C | –
22 | COc1ccc(-c2cc(CN3CCNCC3)c(=O)n(CC(C)C)n2)cc1Cl.Cl.Cl | 203.6 to 204.5 °C | –
23 | COc1ccc(-c2cc(CN3CCN(C)CC3)c(=O)n(CC(C)C)n2)cc1Cl.Cl.Cl | 235.8 to 236.7 °C | –
24 | CNCc1cc(-c2ccc(OC)c(F)c2)nn(CC2CC2)c1=O | 169.1 to 170.7 °C | –
25 | Cc1ccc(-c2cc(CN(CCO)CCO)c(=O)n(CC(C)C)n2)cc1 [Example 49, 4-N,N-bis(2-hydroxyethyl)aminomethyl-6-(4-methylphenyl)-2-isobutyl-2H-pyridazin-3-one hydrochloride] | – | IC50 ([1]; Table 1, read-out: IL-1β production inhibiting activity IC50): 3.53 µM
26 | Cc1ccc(-c2nn(CC(C)C)c(=O)c(NC(CO)CO)c2C)cc1 [Example 52, 4-(1,3-dihydroxypropan-2-yl)amino-methyl-2-isobutyl-6-(4-methylphenyl)-2H-pyridazin-3-one] | 134.1 to 135.2 °C | –
27 | CSc1ccc(-c2nn(CC3CC3)c(=O)c(N(C)C)c2C)cc1.Cl [Example 153, 2-cyclopropylmethyl-4-dimethylamino-methyl-6-[4-(methylthio)phenyl]-2H-pyridazin-3-one hydrochloride] | 230.2 to 232.3 °C | –
28 | COc1ccc(-c2cc(CN)c(=O)n(Cc3ccc(F)cc3)n2)cc1F [Example 194, 4-aminomethyl-2-(4-fluorobenzyl)-6-(3-fluoro-4-methoxyphenyl)-2H-pyridazin-3-one] | 145 to 149 °C | –
29 | COc1ccc(-c2cc(CN(C)C)c(=O)n(CCCc3ccc(F)cc3)n2)cc1F [Example 197, 4-dimethylaminomethyl-6-(3-fluoro-4-methoxyphenyl)-2-[3-(4-fluorophenyl)propyl]-2H-pyridazin-3-one] | 97 to 100 °C | –
30 | COc1ccc(-c2cc(CN)c(=O)n(Cc3ccc(Cl)cc3)n2)cc1F [Example 205, 4-aminomethyl-2-(4-chlorobenzyl)-6-(3-fluoro-4-methoxyphenyl)-2H-pyridazin-3-one] | 128.5 to 131.4 °C | –
31 | COc1ccc(-c2cc(CN3CCN(CCO)CC3)c(=O)n(CC=Cc3ccc(Cl)cc3)n2)cc1F [Example 210, 2-(4-chlorocinnamyl)-6-(3-fluoro-4-methoxyphenyl)-4-[4-(2-hydroxyethyl)-1-piperazinyl]methyl-2H-pyridazin-3-one] | – | IC50 ([1]; Homo sapiens, 72 h, Table 2, read-out: IL-1β production inhibiting activity IC50): 3.1 µM
32 | COc1ccc(-c2cc(CCCN3CCNCC3)c(=O)n(CC3CC3)n2)cc1F [Example 213, 2-cyclopropylmethyl-6-(3-fluoro-4-methoxyphenyl)-4-[3-(1-piperazinyl)propyl]-2H-pyridazin-3-one] | – | IC50 [1, 2]: 0.24 µM
33 | COc1ccc(-c2cc(CCCN)c(=O)n(CC3CC3)n2)cc1F [Example 216, 4-(3-aminopropyl)-2-cyclopropylmethyl-6-(3-fluoro-4-methoxyphenyl)-2H-pyridazin-3-one] | – | IC50 [1, 2]: 1.14 µM
34 | Cc1cc(-c2cc(CN)c(=O)n(Cc3ccccc3Cl)n2)ccc1F [Example 237, 4-aminomethyl-2-(2-chlorobenzyl)-6-(4-fluoro-3-methylphenyl)-2H-pyridazin-3-one] | 97.6 to 102.2 °C | –

Second part, led by results:

Row | melting point | Structure (SMILES) | further results
35 | 182.5 to 186 °C | CC(C)Cn1nc(-c2ccc(F)c(F)c2)cc(CN2CCNCC2)c1=O.Cl.Cl | –
36 | 162.7 to 180.7 °C (dec.) | Cc1cc(-c2cc(CN3CCNCC3)c(=O)n(Cc3ccccc3)n2)ccc1F.Cl.Cl | –
37 | 240 to 242.5 °C (dec.) | Cc1cc(-c2cc(CN3CCN(C)CC3)c(=O)n(Cc3ccccc3)n2)ccc1F.Cl.Cl | –
38 | 201.3 to 201.9 °C | Cc1cc(-c2nn(CC=Cc3ccc(Cl)cc3)c(=O)c(N(C)C)c2C)ccc1F.Cl | –
39 | 248.5 to 253.7 °C (dec.) | CSc1ccc(-c2cc(CN3CCNCC3)c(=O)n(CC(C)C)n2)cc1.Cl.Cl | –
40 | 224.5 to 229.1 °C (dec.) | Cc1c(-c2ccc([S+](C)[O-])cc2)nn(CC(C)C)c(=O)c1N1CCN(C)CC1.Cl.Cl (centres unmarked) | –
41 | 209 to 211.4 °C | CN1CCN(Cc2cc(-c3ccc(S(C)(=O)=O)cc3)nn(CC3CC3)c2=O)CC1.Cl.Cl | –
42 | 239.5 to 240.7 °C | Cc1c(-c2ccc(S(C)(=O)=O)cc2)nn(CC2CC2)c(=O)c1N(C)C.Cl | –
43 | 191 to 202 °C (dec.) | Cc1cc(-c2cc(CN3CCN(C)CC3)c(=O)n(Cc3ccccc3Cl)n2)ccc1F.Cl.Cl | –
44 | 212.4 to 212.8 °C | COc1ccc(-c2cc(CN(C)C)c(=O)n(CC(C)C)n2)cc1F.Cl | –
45 | 154.3 to 159.5 °C | Cc1c(-c2ccccc2)nn(CC(C)C)c(=O)c1N1CCNCC1.Cl.Cl | –
46 | 221.7 to 222.3 °C | CC(C)Cn1nc(-c2ccccc2)cc(CN(C)C)c1=O.Cl | –
47 | 210.8 to 212.5 °C | CC(C)Cn1nc(-c2ccc(C(F)(F)F)cc2)cc(CN2CCNCC2)c1=O.Cl.Cl | –
48 | 262.2 to 263.6 °C | CC(C)Cn1nc(-c2ccc(-c3ccccc3)cc2)cc(CN2CCN(C)CC2)c1=O.Cl.Cl | –
49 | 213.6 to 214.3 °C | COc1ccc(-c2cc(CN(C)C)c(=O)n(CC(C)C)n2)cc1Cl.Cl | –
50 | 111.5 to 118 °C | COc1ccc(-c2cc(CN3CCNCC3)c(=O)n(CC3CC3)n2)cc1F [Example 20, 2-cyclopropylmethyl-6-(3-fluoro-4-methoxyphenyl)-4-(1-piperazinyl)methyl-2H-pyridazin-3-one] | –
51 | 74.9 to 77.9 °C | Cc1ccc(-c2cc(CN)c(=O)n(CC(C)C)n2)cc1 [Example 50, 4-aminomethyl-2-isobutyl-6-(4-methylphenyl)-2H-pyridazin-3-one] | –
52 | 127 to 129 °C | COc1ccc(-c2cc(CN(C)C)c(=O)n(Cc3ccc(F)cc3)n2)cc1F [Example 190, 4-dimethylaminomethyl-2-(4-fluorobenzyl)-6-(3-fluoro-4-methoxyphenyl)-2H-pyridazin-3-one] | –
53 | 82 to 84 °C | COc1ccc(-c2cc(CN)c(=O)n(CCCc3ccc(F)cc3)n2)cc1F [Example 200, 4-aminomethyl-6-(3-fluoro-4-methoxyphenyl)-2-[3-(4-fluorophenyl)propyl]-2H-pyridazin-3-one] | –
54 | 95.3 to 96.7 °C | COc1ccc(-c2cc(CN(C)C)c(=O)n(Cc3ccc(Cl)cc3)n2)cc1F [Example 203, 2-(4-chlorobenzyl)-4-dimethylaminomethyl-6-(3-fluoro-4-methoxyphenyl)-2H-pyridazin-3-one] | –
55 | 149.7 to 150.9 °C | Cc1cc(-c2cc(CN3CCN(C)CC3)c(=O)n(Cc3ccccc3Cl)n2)ccc1F [Example 224, 2-(2-chlorobenzyl)-6-(4-fluoro-3-methylphenyl)-4-(4-methyl-1-piperazinyl)methyl-2H-pyridazin-3-one] | –
56 | 108 to 109 °C | COc1ccc(-c2cc(CCCN3CCN(C)CC3)c(=O)n(Cc3ccc(F)cc3)n2)cc1F [Example 239, 2-(4-fluorobenzyl)-6-(3-fluoro-4-methoxyphenyl)-4-[3-(4-methyl-1-piperazinyl)propyl]-2H-pyridazin-3-one] | –
